Results: PubChem BioAssay AID180 (DTP/NCI, 2004)
Several values for one entry are separate records, joined by “and”; a condition that tells them apart may be missing. Equal entries are not always repeated.

Tested on: BDF1 mice, Adenocarcinoma 755 s.c., tumor weight T/C
Test: NCI In Vivo Anticancer Drug Screen. Data for tumor model Adenocarcinoma 755 (subcutaneous) in B6D2F1 (BDF1) mice
Settings: endpoint: mean tumor weight, higher = larger tumour
Protocol: The antitumor activity of compounds was measured in mice bearing transplantable tumors. Survival or tumor size were measured and the results are expressed as the measurement made in the treated group (T) divided by the measurement made in the vehicle treated control group (C). The tumor model used in this assay is Adenocarcinoma 755 (subcutaneous) in B6D2F1 (BDF1) mice

[1] = dose: 25.0 mg/kg/injection, schedule: Q01DX011 (ip), vehicle: carboxymethylcellulose (CMC)
[2] = dose: 50.0 mg/kg/injection, schedule: Q01DX011 (ip), vehicle: carboxymethylcellulose (CMC)
[3] = dose: 50.0 mg/kg/injection, schedule: Q01DX011 (ip), vehicle: other
[4] = dose: 100.0 mg/kg/injection, schedule: Q01DX011 (ip), vehicle: carboxymethylcellulose (CMC)
[5] = dose: 100.0 mg/kg/injection, schedule: Q01DX011 (ip), vehicle: other
[6] = dose: 200.0 mg/kg/injection, schedule: Q01DX011 (ip), vehicle: other
[7] = dose: 3.1 mg/kg/injection, schedule: Q01DX011 (ip), vehicle: methylcellulose (MC)
[8] = dose: 25.0 mg/kg/injection, schedule: Q01DX011 (ip), vehicle: methylcellulose (MC)
[9] = dose: 75.0 mg/kg/injection, schedule: Q01DX011 (ip), vehicle: methylcellulose (MC)
[10] = dose: 225.0 mg/kg/injection, schedule: Q01DX011 (ip), vehicle: methylcellulose (MC)
[11] = dose: 15.0 mg/kg/injection, schedule: Q01DX011 (ip), vehicle: carboxymethylcellulose (CMC)

SMILES: CC(=O)Nc1c(Cl)cc2c(c1Cl)Cc1cc([N+](=O)[O-])ccc1-2
- T/C (dose: 0.8 mg/kg/injection, schedule: Q01DX011 (ip), vehicle: carboxymethylcellulose (CMC)): 32 % of control
- T/C (dose: 1.6 mg/kg/injection, schedule: Q01DX011 (ip), vehicle: carboxymethylcellulose (CMC)): 47 % of control
- T/C (dose: 3.0 mg/kg/injection, schedule: Q01DX011 (ip), vehicle: other): 61 % of control
- T/C (dose: 3.12 mg/kg/injection, schedule: Q01DX011 (ip), vehicle: carboxymethylcellulose (CMC)): 25 % of control
- T/C (dose: 6.0 mg/kg/injection, schedule: Q01DX011 (ip), vehicle: other): 87 % of control
- T/C (dose: 6.25 mg/kg/injection, schedule: Q01DX011 (ip), vehicle: carboxymethylcellulose (CMC)): 31 % of control and 33 % of control
- T/C (dose: 6.25 mg/kg/injection, schedule: Q01DX011 (ip), vehicle: other): 59 % of control
- T/C (dose: 12.5 mg/kg/injection, schedule: Q01DX011 (ip), vehicle: carboxymethylcellulose (CMC)): 15 % of control
- T/C (dose: 12.5 mg/kg/injection, schedule: Q01DX011 (ip), vehicle: other): 22 % of control and 35 % of control
- T/C [1]: 9 % of control
- T/C (dose: 25.0 mg/kg/injection, schedule: Q01DX011 (ip), vehicle: other): 24 % of control and 45 % of control
- T/C [2]: 9 % of control
- T/C [3]: 31 % of control and 35 % of control
- T/C [4]: 8 % of control
- T/C [5]: 30 % of control
- T/C (dose: 200.0 mg/kg/injection, schedule: Q01DX011 (ip), vehicle: carboxymethylcellulose (CMC)): 6 % of control and 25 % of control
- T/C [6]: 26 % of control
- T/C (dose: 300.0 mg/kg/injection, schedule: Q01DX011 (ip), vehicle: carboxymethylcellulose (CMC)): 6 % of control
- T/C (dose: 400.0 mg/kg/injection, schedule: Q01DX011 (ip), vehicle: other): 20 % of control

SMILES: CC(C)Sc1nc(N)nc2c1ncn2C1OC(CO)C(O)C1O (stereo not given)
- T/C (dose: 0.38 mg/kg/injection, schedule: Q01DX011 (ip), vehicle: methylcellulose (MC)): 48 % of control
- T/C (dose: 0.75 mg/kg/injection, schedule: Q01DX011 (ip), vehicle: methylcellulose (MC)): 60 % of control
- T/C (dose: 1.5 mg/kg/injection, schedule: Q01DX011 (ip), vehicle: methylcellulose (MC)): 40 % of control
- T/C (dose: 3.0 mg/kg/injection, schedule: Q01DX011 (ip), vehicle: methylcellulose (MC)): 36 % of control
- T/C [7]: 3 % of control

SMILES: CS(=O)(=O)OCCC(=O)N1CCC(CCC2CCN(C(=O)CCOS(C)(=O)=O)CC2)CC1
- T/C [8]: 79 % of control
- T/C [9]: 63 % of control
- T/C [10]: 81 % of control

SMILES: C=C(Cl)CN(CC)CCO
- T/C [3]: 77 % of control
- T/C [5]: 69 % of control
- T/C [6]: 76 % of control

SMILES: NS(=O)(=O)c1ncnc2nc[nH]c12
- T/C [7]: 105 % of control
- T/C (dose: 6.2 mg/kg/injection, schedule: Q01DX011 (ip), vehicle: methylcellulose (MC)): 78 % of control
- T/C (dose: 12.5 mg/kg/injection, schedule: Q01DX011 (ip), vehicle: methylcellulose (MC)): 15 % of control
- T/C [8]: 3 % of control and 9 % of control

SMILES: CSc1nc(N)nc2nc[nH]c12
- T/C (dose: 0.6 mg/kg/injection, schedule: Q01DX011 (ip), vehicle: carboxymethylcellulose (CMC)): 51 % of control
- T/C (dose: 1.25 mg/kg/injection, schedule: Q01DX011 (ip), vehicle: carboxymethylcellulose (CMC)): 55 % of control
- T/C (dose: 2.5 mg/kg/injection, schedule: Q01DX011 (ip), vehicle: carboxymethylcellulose (CMC)): 75 % of control
- T/C (dose: 5.0 mg/kg/injection, schedule: Q01DX011 (ip), vehicle: carboxymethylcellulose (CMC)): 28 % of control
- T/C [11]: 1 % of control

SMILES: Fc1cccc(CSc2ncnc3c2ncn3C2CCCS2)c1 (stereo not given)
- T/C [8]: 61 % of control
- T/C [9]: 62 % of control
- T/C [10]: 32 % of control

SMILES: CC1([CH2][Hg][I])OCCOC1[CH2][Hg][I] (stereo not given)
- T/C (dose: 2.5 mg/kg/injection, schedule: Q01DX011 (ip), vehicle: saline): 57 % of control
- T/C (dose: 5.0 mg/kg/injection, schedule: Q01DX011 (ip), vehicle: saline): 71 % of control
- T/C (dose: 10.0 mg/kg/injection, schedule: Q01DX011 (ip), vehicle: saline): 57 % of control
- T/C (dose: 10.9 mg/kg/injection, schedule: Q01DX011 (ip), vehicle: saline): 36 % of control
- T/C (dose: 11.0 mg/kg/injection, schedule: Q01DX011 (ip), vehicle: carboxymethylcellulose (CMC)): 87 % of control
- T/C (dose: 20.0 mg/kg/injection, schedule: Q01DX011 (ip), vehicle: saline): 7 % of control

SMILES: CC(=O)OCC(=O)[C@@]1(O)CC[C@H]2[C@@H]3CCC4=CC(=O)C=C[C@]4(C)[C@H]3[C@@H](O)C[C@@]21C
- T/C (dose: 20.0 mg/kg/injection, schedule: Q01DX011 (sc), vehicle: steriod suspending solution): 23 % of control and 26 % of control
- T/C (dose: 40.0 mg/kg/injection, schedule: Q01DX011 (sc), vehicle: steriod suspending solution): 24 % of control and 26 % of control
- T/C (dose: 67.5 mg/kg/injection, schedule: Q01DX011 (sc), vehicle: steriod suspending solution): 30 % of control
- T/C (dose: 80.0 mg/kg/injection, schedule: Q01DX011 (sc), vehicle: steriod suspending solution): 88 % of control
- T/C (dose: 160.0 mg/kg/injection, schedule: Q01DX011 (sc), vehicle: steriod suspending solution): 40 % of control

SMILES: CC1NC(=O)NC1CCCCCC(=O)O (stereo not given)
- T/C (dose: 89.06 mg/kg/injection, schedule: Q01DX011 (ip), vehicle: carboxymethylcellulose (CMC)): 122 % of control
- T/C (dose: 125.0 mg/kg/injection, schedule: Q01DX011 (ip), vehicle: carboxymethylcellulose (CMC)): 75 % of control
- T/C (dose: 178.13 mg/kg/injection, schedule: Q01DX011 (ip), vehicle: carboxymethylcellulose (CMC)): 83 % of control
- T/C (dose: 250.0 mg/kg/injection, schedule: Q01DX011 (ip), vehicle: carboxymethylcellulose (CMC)): 49 % of control
- T/C (dose: 356.25 mg/kg/injection, schedule: Q01DX011 (ip), vehicle: carboxymethylcellulose (CMC)): 90 % of control
- T/C (dose: 500.0 mg/kg/injection, schedule: Q01DX011 (ip), vehicle: carboxymethylcellulose (CMC)): 68 % of control
- T/C (dose: 712.5 mg/kg/injection, schedule: Q01DX011 (ip), vehicle: carboxymethylcellulose (CMC)): 47 % of control
- T/C (dose: 1000.0 mg/kg/injection, schedule: Q01DX011 (ip), vehicle: carboxymethylcellulose (CMC)): 69 % of control

SMILES: Oc1ccc2ccccc2c1N=Nc1ccc(F)cc1
- T/C [11]: 70 % of control
- T/C [1]: 104 % of control
- T/C (dose: 31.0 mg/kg/injection, schedule: Q01DX011 (ip), vehicle: carboxymethylcellulose (CMC)): 37 % of control
- T/C (dose: 45.0 mg/kg/injection, schedule: Q01DX011 (ip), vehicle: carboxymethylcellulose (CMC)): 33 % of control
- T/C [2]: 30 % of control
- T/C (dose: 50.0 mg/kg/injection, schedule: Q01DX011 (ip), vehicle: saline): 38 % of control
- T/C (dose: 62.0 mg/kg/injection, schedule: Q01DX011 (ip), vehicle: carboxymethylcellulose (CMC)): 46 % of control
- T/C [4]: 27 % of control
- T/C (dose: 100.0 mg/kg/injection, schedule: Q01DX011 (ip), vehicle: saline): 12 % of control
- T/C (dose: 200.0 mg/kg/injection, schedule: Q01DX011 (ip), vehicle: saline): 22 % of control
- T/C (dose: 224.0 mg/kg/injection, schedule: Q01DX011 (ip), vehicle: carboxymethylcellulose (CMC)): 9 % of control
- T/C (dose: 400.0 mg/kg/injection, schedule: Q01DX011 (ip), vehicle: carboxymethylcellulose (CMC)): 12 % of control and 15 % of control
- T/C (dose: 400.0 mg/kg/injection, schedule: Q01DX011 (ip), vehicle: saline): 15 % of control
- T/C (dose: 450.0 mg/kg/injection, schedule: Q01DX011 (ip), vehicle: carboxymethylcellulose (CMC)): 17 % of control
- T/C (dose: 600.0 mg/kg/injection, schedule: Q01DX011 (ip), vehicle: saline): 14 % of control
- T/C (dose: 800.0 mg/kg/injection, schedule: Q01DX011 (ip), vehicle: carboxymethylcellulose (CMC)): 21 % of control
- T/C (dose: 1600.0 mg/kg/injection, schedule: Q01DX011 (ip), vehicle: carboxymethylcellulose (CMC)): 8 % of control

SMILES: NC(=O)c1cc(N)nc(Cl)n1
- T/C (dose: 15.0 mg/kg/injection, schedule: Q01DX011 (ip), vehicle: saline): 102 % of control
- T/C (dose: 31.0 mg/kg/injection, schedule: Q01DX011 (ip), vehicle: saline): 90 % of control
- T/C (dose: 62.0 mg/kg/injection, schedule: Q01DX011 (ip), vehicle: saline): 87 % of control
- T/C (dose: 125.0 mg/kg/injection, schedule: Q01DX011 (ip), vehicle: saline): 83 % of control
- T/C (dose: 250.0 mg/kg/injection, schedule: Q01DX011 (ip), vehicle: saline): 61 % of control

SMILES: CC(=O)OCC1OC(n2cnc3c(=O)[nH]cnc32)CC1OC(C)=O (stereo not given)
- T/C (dose: 60.0 mg/kg/injection, schedule: Q01DX011 (ip), vehicle: carboxymethylcellulose (CMC)): 75 % of control and 78 % of control
- T/C (dose: 120.0 mg/kg/injection, schedule: Q01DX011 (ip), vehicle: carboxymethylcellulose (CMC)): 86 % of control
